# Laboratory results published in ChEMBL document CHEMBL1140088, “N9-substituted 2,4-diaminoquinazolines: synthesis and biological evaluation of lipophilic inhibitors of pneumocystis carinii and toxoplasma gondii dihydrofolate reductase” (J Med Chem, 2008).
# pIC50: −log10 of the molar value.
# Columns and labels:
# Dihydrofolate reductase [1] = target: T1, Dihydrofolate reductase (Rattus norvegicus, UniProt Q920D2)
# T1 sequence (Q920D2 whole entry): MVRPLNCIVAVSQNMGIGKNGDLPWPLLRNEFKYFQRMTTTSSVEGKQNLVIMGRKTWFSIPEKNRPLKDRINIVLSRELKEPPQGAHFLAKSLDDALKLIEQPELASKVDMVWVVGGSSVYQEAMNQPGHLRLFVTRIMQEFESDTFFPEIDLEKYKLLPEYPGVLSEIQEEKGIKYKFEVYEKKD
# Description: Inhibition of rat liver dihydrofolate reductase
# [2] = target: T2, Bifunctional dihydrofolate reductase-thymidylate synthase (Toxoplasma gondii, UniProt Q07422)
# T2 sequence (Q07422 whole entry): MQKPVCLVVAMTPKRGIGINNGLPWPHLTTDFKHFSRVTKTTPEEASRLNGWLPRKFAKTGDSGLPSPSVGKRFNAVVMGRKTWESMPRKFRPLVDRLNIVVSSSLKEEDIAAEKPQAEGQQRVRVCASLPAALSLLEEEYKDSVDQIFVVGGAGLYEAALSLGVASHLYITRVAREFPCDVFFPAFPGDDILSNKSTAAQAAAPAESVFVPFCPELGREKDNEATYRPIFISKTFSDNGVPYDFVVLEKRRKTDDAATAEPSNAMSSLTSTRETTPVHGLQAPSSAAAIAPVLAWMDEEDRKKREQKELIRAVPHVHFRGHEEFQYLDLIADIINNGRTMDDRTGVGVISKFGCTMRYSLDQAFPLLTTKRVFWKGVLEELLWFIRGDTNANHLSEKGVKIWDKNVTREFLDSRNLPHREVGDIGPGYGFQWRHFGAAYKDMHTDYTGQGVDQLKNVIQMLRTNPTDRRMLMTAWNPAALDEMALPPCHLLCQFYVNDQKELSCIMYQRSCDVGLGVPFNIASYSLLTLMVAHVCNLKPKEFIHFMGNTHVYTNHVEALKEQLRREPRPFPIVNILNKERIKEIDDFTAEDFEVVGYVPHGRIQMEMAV
# Description: Inhibition of Toxoplasma gondii dihydrofolate reductase
# Dihydrofolate reductase [3] = target: T3, Dihydrofolate reductase (Mycobacterium avium, UniProt O30463); test: Inhibition of Mycobacterium avium dihydrofolate reductase
# T3 sequence (O30463 whole entry): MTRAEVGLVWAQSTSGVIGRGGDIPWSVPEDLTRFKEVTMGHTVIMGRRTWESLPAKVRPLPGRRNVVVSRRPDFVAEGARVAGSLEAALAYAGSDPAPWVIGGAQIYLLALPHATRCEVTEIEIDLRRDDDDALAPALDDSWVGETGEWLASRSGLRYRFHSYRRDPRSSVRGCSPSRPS
# Dihydrofolate reductase [4] = target: T4, Dihydrofolate reductase (Pneumocystis carinii, UniProt P16184)
# T4 sequence (P16184 whole entry): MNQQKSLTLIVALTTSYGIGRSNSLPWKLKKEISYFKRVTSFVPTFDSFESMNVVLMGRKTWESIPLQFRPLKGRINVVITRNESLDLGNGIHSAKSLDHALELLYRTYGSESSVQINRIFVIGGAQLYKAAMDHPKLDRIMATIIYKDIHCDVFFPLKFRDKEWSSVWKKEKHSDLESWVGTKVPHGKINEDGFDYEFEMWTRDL
# Description: Inhibition of Pneumocystis carinii dihydrofolate reductase
smiles,measurement,setting,value
CCCN(Cc1cc(OC)ccc1OC)c1ccc2nc(N)nc(N)c2c1,pIC50,Dihydrofolate reductase [1],8.28
same,pIC50,[2],8.02
same,pIC50,Dihydrofolate reductase [3],8.48
same,pIC50,Dihydrofolate reductase [4],7.42
CCN(Cc1cc(Cl)cc(Cl)c1Cl)c1ccc2nc(N)nc(N)c2c1,pIC50,Dihydrofolate reductase [1],7.72
same,pIC50,[2],7.72
same,pIC50,Dihydrofolate reductase [3],7.85
same,pIC50,Dihydrofolate reductase [4],8.16
CCN(Cc1ccc2ccccc2c1)c1ccc2nc(N)nc(N)c2c1,pIC50,Dihydrofolate reductase [1],7.84
same,pIC50,[2],7.92
same,pIC50,Dihydrofolate reductase [3],8.64
same,pIC50,Dihydrofolate reductase [4],8.14
CCN(Cc1ccccc1)c1ccc2nc(N)nc(N)c2c1,pIC50,Dihydrofolate reductase [1],8.39
same,pIC50,[2],8.44
same,pIC50,Dihydrofolate reductase [4],7.68
CCN(Cc1cc(OC)ccc1OC)c1ccc2nc(N)nc(N)c2c1,pIC50,Dihydrofolate reductase [1],8.32
same,pIC50,[2],8.43
same,pIC50,Dihydrofolate reductase [3],9.01
same,pIC50,Dihydrofolate reductase [4],8.00
CCN(Cc1cccc2ccccc12)c1ccc2nc(N)nc(N)c2c1,pIC50,Dihydrofolate reductase [1],8.19
same,pIC50,[2],8.11
same,pIC50,Dihydrofolate reductase [3],8.54
same,pIC50,Dihydrofolate reductase [4],8.60
